Target: T1, 3-hydroxy-3-methylglutaryl-coenzyme A reductase (Rattus norvegicus, UniProt P51639)
T1 sequence (P51639 whole entry): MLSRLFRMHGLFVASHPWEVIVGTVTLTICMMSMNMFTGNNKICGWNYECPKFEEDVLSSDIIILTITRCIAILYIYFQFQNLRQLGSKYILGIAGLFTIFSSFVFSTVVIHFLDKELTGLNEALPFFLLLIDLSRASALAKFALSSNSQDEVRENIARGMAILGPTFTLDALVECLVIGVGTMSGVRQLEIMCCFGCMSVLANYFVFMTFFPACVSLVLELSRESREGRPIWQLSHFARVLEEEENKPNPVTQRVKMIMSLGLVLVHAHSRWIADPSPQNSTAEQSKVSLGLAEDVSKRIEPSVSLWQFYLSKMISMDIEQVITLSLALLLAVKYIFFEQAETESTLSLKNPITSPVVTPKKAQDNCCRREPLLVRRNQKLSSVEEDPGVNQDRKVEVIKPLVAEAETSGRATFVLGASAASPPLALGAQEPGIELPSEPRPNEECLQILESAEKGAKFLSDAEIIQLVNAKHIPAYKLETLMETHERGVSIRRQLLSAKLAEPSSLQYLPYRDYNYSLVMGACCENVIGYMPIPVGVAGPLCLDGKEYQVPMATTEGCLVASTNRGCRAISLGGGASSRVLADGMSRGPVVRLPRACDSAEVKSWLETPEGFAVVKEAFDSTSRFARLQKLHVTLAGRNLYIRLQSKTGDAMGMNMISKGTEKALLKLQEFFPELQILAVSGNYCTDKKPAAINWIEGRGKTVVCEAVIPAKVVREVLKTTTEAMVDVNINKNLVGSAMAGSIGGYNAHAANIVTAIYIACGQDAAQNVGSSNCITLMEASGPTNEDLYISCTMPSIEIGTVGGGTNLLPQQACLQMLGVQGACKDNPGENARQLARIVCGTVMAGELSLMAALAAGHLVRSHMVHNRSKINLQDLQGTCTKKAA
Assay: HMG-CoA Reductase In Vitro Assay
Text: Assay for HMG-CoA reductase was based on the conversion of isotopically labeled HMG-CoA to mevalonic acid using rat liver microsomes as enzyme source. The product, [14C]-mevalonic acid was lactonized and separated from excess substrate via an anion ion exchange resin column, and radioactivity was counted on a scintillation counter.

Work on `CC(C)c1c(C(=O)N2CCc3ccccc3C2)nn(-c2ccc(F)cc2)c1OC[C@@H](O)C[C@@H](O)CC(=O)O` [(3R,5S)-6-{[1-(4-fluorophenyl)-4-(propan-2-yl)-3-(1,2,3,4-tetrahydroisoquinolin-2-ylcarbonyl)-1H-pyrazol-5-yl]oxy}-3,5-dihydroxyhexanoic acid] yielded an IC50 of 10 nM.

From BindingDB's records for doi:10.1016/j.bmcl.2007.08.004 (Pfizer, 2007)
